Source: patent US7541367B2, “3-benzoimidazolyl-pyrazolopyridines useful in treating kinase disorders” (Janssen Pharmaceutica, N.V., priority 2005, dated 2009)

Key:
HCT-116 colon carcinoma = assay: Cell Proliferation Inhibition Assay (14C-thymidine incorporation), HCT-116; format: cell-based; conditions: Homo sapiens, HCT-116, HCT-116 cells;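 also: proliferation measured as methyl 14C-thymidine uptake into new DNA, counted in 96-well scintillating microplates, compared with DMSO-only control wells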
HER2 = target: T1, HER2 (Homo sapiens, UniProt P04626); assay: HER2 kinase screening assay (33P-ATP FlashPlate); format: biochemical; conditions: GST-HIS6 HER-2 aa 679 to 1255; 10 μM ATP; 1 hr at 30° C;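 also: Biotin-poly(GT) 4:1 peptide captured on streptavidin FlashPlate, 33P transfer from γ-ATP read by scintillation counting, lower incorporation means inhibition, 1% DMSO final, 100 µL reaction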
T1 construct: GST (Glutathione-S-Transferase) (N); HIS6 (N); thrombin cleavage site (N); purchased Proqinase, Freiburg, Germany
T1 sequence (P04626 679-1255): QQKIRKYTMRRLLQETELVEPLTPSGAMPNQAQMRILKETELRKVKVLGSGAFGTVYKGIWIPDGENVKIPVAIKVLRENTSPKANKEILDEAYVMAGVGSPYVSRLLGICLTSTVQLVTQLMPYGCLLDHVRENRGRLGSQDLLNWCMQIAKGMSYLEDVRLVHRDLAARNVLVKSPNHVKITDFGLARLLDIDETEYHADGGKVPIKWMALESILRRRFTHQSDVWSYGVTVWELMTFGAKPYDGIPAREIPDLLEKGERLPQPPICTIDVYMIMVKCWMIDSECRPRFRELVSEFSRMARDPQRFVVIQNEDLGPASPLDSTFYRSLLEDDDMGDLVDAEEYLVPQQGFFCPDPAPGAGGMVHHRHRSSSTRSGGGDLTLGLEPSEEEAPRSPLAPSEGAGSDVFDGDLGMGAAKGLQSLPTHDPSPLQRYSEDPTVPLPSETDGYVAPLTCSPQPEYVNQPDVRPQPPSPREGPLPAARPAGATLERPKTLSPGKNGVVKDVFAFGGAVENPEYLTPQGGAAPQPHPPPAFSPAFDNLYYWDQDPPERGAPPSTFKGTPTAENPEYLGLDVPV

Lyn kinase = target: T2, Lyn kinase (Homo sapiens, UniProt P07948); assay: Lyn Kinase Assay; format: biochemical; conditions: 5 μM ATP
T2 construct: purchased Upstate Biotechnology, Lake Placid, N.Y
T2 sequence (P07948 whole entry): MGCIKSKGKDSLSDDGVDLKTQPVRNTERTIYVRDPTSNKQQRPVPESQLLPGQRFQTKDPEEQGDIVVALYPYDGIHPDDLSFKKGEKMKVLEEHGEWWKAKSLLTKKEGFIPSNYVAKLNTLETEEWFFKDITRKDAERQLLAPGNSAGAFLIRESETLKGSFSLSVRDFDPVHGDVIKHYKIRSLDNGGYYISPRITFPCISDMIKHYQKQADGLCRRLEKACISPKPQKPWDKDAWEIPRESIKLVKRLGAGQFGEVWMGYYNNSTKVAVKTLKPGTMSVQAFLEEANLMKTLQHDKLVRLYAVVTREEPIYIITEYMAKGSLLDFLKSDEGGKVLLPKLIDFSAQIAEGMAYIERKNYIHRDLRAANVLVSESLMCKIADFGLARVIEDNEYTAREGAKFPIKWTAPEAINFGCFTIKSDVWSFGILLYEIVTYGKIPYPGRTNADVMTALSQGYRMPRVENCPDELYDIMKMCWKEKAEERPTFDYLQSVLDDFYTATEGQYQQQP
How it was run: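 Recombinant human Lyn kinase in pH 7.5 Tris buffer with EGTA, vanadate, β-mercaptoethanol and BSA reacted with compound for 40 min at 30° C. The radiolabelled product was captured on P30 filtermats after phosphoric acid stop and counted by scintillation. IC50 came from percent inhibition versus log concentration, using plate maximum/minimum signals.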

A375 malignant melanoma = assay: Cell Proliferation Inhibition Assay (14C-thymidine incorporation), A375; format: cell-based; conditions: Homo sapiens, A-375, A375 cells;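 also: proliferation measured by radiolabelled thymidine uptake into new DNA, counted in scintillating 96-well plates, compound-treated wells compared with DMSO-only control wells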
c-Src kinase = target: T3, c-Src kinase (Homo sapiens, UniProt P12931); assay: c-Src Kinase Assay; format: biochemical; conditions: 5 μM ATP
T3 construct: purchased Upstate Biotechnology, Lake Placid, N.Y
T3 sequence (P12931 whole entry): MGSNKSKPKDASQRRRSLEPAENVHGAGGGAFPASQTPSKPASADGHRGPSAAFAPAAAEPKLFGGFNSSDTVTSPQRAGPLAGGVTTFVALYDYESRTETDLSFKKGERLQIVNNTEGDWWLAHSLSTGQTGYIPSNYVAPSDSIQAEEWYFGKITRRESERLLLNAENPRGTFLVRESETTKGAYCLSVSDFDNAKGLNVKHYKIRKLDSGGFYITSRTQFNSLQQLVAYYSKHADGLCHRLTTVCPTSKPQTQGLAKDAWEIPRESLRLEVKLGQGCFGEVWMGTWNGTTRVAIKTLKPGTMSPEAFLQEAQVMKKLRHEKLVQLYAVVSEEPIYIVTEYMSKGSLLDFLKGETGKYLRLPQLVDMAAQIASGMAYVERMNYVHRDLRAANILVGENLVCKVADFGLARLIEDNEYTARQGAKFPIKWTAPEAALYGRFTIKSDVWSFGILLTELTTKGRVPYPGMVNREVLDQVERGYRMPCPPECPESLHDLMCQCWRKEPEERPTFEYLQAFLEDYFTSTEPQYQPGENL
How it was run: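 Human c-Src phosphorylated Cdc2 peptide (100 μM) […]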

[1] = test system: Human melanoma A375 cells; assay: In Vivo Models - Inhibition of Tumor Growth (A375 xenograft); conditions: female athymic mice, 25 mg/kg i.p. daily
Protocol: The ability of test compounds to inhibit unregulated growth of human tumor cells in vivo was evaluated by implanting human tumor cells into the hindflank of athymic mice, administering a test compound and then quantifying any change in tumor size.
Certain compounds at particular doses produced adverse effects in this model. One skilled in the art would be able to establish the effective amount of compound required to achieve an effective therapeutic window.
Human melanoma A375 cells were implanted subcutaneously into the hindflank of female athymic mice (Charles River) and allowed to grow for 6-10 days. After a measurable tumor was established (as determined by baseline caliper measurement), the animal was administered an intraperitoneal (i.p.) dose of the test compound daily at 25 mg/kg for the length of the study. Tumor size was measured at certain intervals as shown in Table 5 and the degree of inhibition for a test compound was determined by comparing the reduction in tumor volume for drug-treated animals to that of untreated and vehicle-treated animals. The vehicle used was 20% hydroxypropyl β-cyclodextran.

CDK1 = target: T4, CDK1 (Homo sapiens, UniProt P06493); assay: CDK-1 kinase screening assay (33P-ATP FlashPlate); format: biochemical; conditions: human CDK1 with cyclin B; 10 μM ATP; 1 hr at 30° C
T4 construct: purchased New England Biolabs, Beverly, Mass; 6020; host or cells: insect cells
T4 sequence (P06493 whole entry): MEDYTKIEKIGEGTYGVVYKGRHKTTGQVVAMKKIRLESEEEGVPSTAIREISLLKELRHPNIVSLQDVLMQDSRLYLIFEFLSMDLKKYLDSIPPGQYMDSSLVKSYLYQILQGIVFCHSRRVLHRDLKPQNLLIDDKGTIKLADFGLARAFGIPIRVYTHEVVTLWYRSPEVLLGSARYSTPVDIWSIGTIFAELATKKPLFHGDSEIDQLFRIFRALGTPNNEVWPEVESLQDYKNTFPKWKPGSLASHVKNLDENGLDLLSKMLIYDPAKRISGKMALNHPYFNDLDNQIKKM
T4 sequence (P14635 whole entry partner): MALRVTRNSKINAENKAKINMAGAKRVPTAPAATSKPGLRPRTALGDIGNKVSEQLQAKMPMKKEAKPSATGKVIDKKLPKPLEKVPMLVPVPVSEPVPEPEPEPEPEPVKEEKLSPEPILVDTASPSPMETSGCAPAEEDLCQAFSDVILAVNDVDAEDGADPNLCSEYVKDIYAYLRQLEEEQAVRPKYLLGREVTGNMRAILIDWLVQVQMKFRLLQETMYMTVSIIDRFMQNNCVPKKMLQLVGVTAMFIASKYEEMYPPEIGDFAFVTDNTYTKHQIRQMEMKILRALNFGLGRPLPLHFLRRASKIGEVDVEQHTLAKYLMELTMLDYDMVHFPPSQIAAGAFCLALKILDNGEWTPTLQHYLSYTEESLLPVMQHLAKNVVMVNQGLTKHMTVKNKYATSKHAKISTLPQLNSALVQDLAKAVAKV

Row | IC50 (HCT-116 colon carcinoma) [nM] | IC50 (HER2) [nM] | IC50 (Lyn kinase) [nM] | IC50 (A375 malignant melanoma) [nM] | IC50 (c-Src kinase) [nM] | IC50 (CDK1) [nM] | Structure (SMILES) | Tumor volume ([1]; Day 1) [mm^3] | Tumor volume ([1]; Day 4) [mm^3] | Tumor volume ([1]; Day 8) [mm^3] | Tumor volume ([1]; Day 11) [mm^3] | Tumor volume ([1]; Day 14) [mm^3]
1 | 55.5 | 3820 | 8.38 | 47.1 | 31.2 | 0.9 to 1.3 | CNCc1cncc(-c2cnc3[nH]nc(-c4nc5cc(OC(F)(F)F)ccc5[nH]4)c3c2)c1 [Cpd 96, methyl-{5-[3-(5-trifluoromethoxy-1H-benzoimidazol-2-yl)-1H-pyrazolo[3,4-b]pyridin-5-yl]-pyridin-3-ylmethyl}-amine] | 95.4 | 68.3 | – | – | –
2 | 48.7 | 4170 | 2.54 | 101 | 8.85 | 0.8 | CCNCc1cncc(-c2cnc3[nH]nc(-c4nc5cc(OC)ccc5[nH]4)c3c2)c1 [Cpd 101, ethyl-{5-[3-(5-methoxy-1H-benzoimidazol-2-yl)-1H-pyrazolo[3,4-b]pyridin-5-yl]-pyridin-3-ylmethyl}-amine] | 95.4 | 128 | 354.1 | 632.3 | 988.7
